{
  "source": "patent US8841233B2",
  "about": "“Herbicidal compositions comprising 4-amino-3-chloro-5-fluoro-6-(4-chloro-2-fluoro-3-methoxyphenyl) pyridine-2-carboxylic acid or a derivative thereof and 4-hydroxyphenyl-pyruvate dioxygenase (HPPD) inhibitors” (Dow Agrosciences LLC, priority 2012, dated 2014)",
  "experiment_in_all_cases": "Pre-emergence soil-applied weed control, greenhouse (Example III)",
  "key": {"[1]": {"tested_on": "SETVI", "format": "in vivo, Setaria viridis (L.) Beauv.", "excerpt": "(§1) Evaluation of Pre-emergence Soil-Applied Herbicidal Mixtures for Weed Control\n(§2) Seeds or nutlets of the desired test plant species were planted in a soil matrix prepared by mixing a loam soil (32 percent silt, 23 percent clay, and 45 percent sand, with a pH of about 6.5 and an organic matter content of about 1.9 percent) and calcareous grit in an 80 to 20 ratio. The soil matrix was contained in plastic pots with a volume of 1 quart and a surface area of 83.6 square centimeters (cm^2).\n(§3) Treatments consisted of the benzyl ester of 4-amino-3-chloro-5-fluoro-6-(4-chloro-2-fluoro-3-methoxy-phenyl)pyridine-2-carboxylic acid (compound A) formulated as an SC (suspension concentrate) and various herbicidal components alone and in combination. Forms of compound A were applied on an acid equivalent basis.\n(§4) Other herbicidal components were applied on an acid equivalent or active ingredient basis and included the 4-hydroxyphenyl pyruvate dioxygenase (HPPD)-inhibiting herbicide, isoxaflutole, formulated as Balance Pro®.\n(§5) Treatment requirements were calculated based upon the rates being tested, the concentration of active ingredient or acid equivalent in the formulation, and a 12 mL application volume at a rate of 187 L/ha.\n(§6) For treatments comprised of formulated compounds, measured amounts of compounds were placed individually in 25 mL glass vials and diluted in a volume of 1.25% (v/v) Agri-Dex® crop oil concentrate (COC) to obtain 12× stock solutions. […] Application solutions were prepared by adding an appropriate amount of each stock solution (e.g., 1 mL) and diluted to the appropriate final concentrations with the addition of 10 mL of an aqueous mixture of 1.25% (v/v) COC so that the final spray solutions contained 1.25% (v/v) COC.\n(§7) All stock solutions and applications solutions were visually inspected for compound compatibility prior to application. Spray solutions were applied to the soil with an overhead Mandel track sprayer equipped with a 8002E nozzles calibrated to deliver 187 L/ha over an application area of 0.503 m^2 at a spray height of 18 inches (46 cm) above average pot height. Control pots were sprayed in the same manner with the solvent blank.\n(§8) The treated and control pots were placed in a greenhouse and top watered as needed. When required to ensure good germination and healthy plants, a fungicide treatment and/or other chemical or physical treatment was applied. […] After approximately 4 weeks, the condition of the test plants as compared with that of the untreated plants was determined visually and scored on a scale of 0 to 100 percent where 0 corresponds to no injury or growth inhibition and 100 corresponds to complete kill. […]"}, "[2]": {"tested_on": "XANST", "format": "in vivo, Xanthium strumarium L.", "details": "35 gai/ha", "excerpt": "as §1, §2, §3, §4, §5, §6, §7, §8"}, "[3]": {"tested_on": "IPOHE", "format": "in vivo, Ipomoea hederacea (L.) Jacq.", "details": "35 gai/ha", "excerpt": "as §1, §2, §3, §4, §5, §6, §7, §8"}},
  "data": [
    {"compound": "CS(=O)(=O)c1cc(C(F)(F)F)ccc1C(=O)c1cnoc1C1CC1", "note": "[Isoxaflutole, (5-cyclopropyl-4-isoxazolyl)[2-(methylsulfonyl)-4-(trifluoromethyl)phenyl]methanone, reference compound]", "values": [
      {"measurement": "Visual Weed Control (%) - 32 DAA SETVI Obs", "setting": "[1]; 35 gai/ha", "result": 50, "unit": "%"},
      {"measurement": "Visual Weed Control (%) - 32 DAA SETVI Obs", "setting": "[1]; 70 gai/ha", "result": 93, "unit": "%"},
      {"measurement": "Visual Weed Control (%) - 32 DAA XANST Obs", "setting": "[2]", "result": 75, "unit": "%"},
      {"measurement": "Visual Weed Control (%) - 32 DAA IPOHE Obs", "setting": "[3]", "result": 43, "unit": "%"}
    ]}
  ]
}
